What was measured:
HaCaT keratinocytes = assay: Single-cell gel electrophoresis (comet assay) of UV-induced DNA damage; assay type: cell-based, human; conditions: for percentage change in % DNA in the tail in protected cells compared to unprotected cells: n=3, t-test; for Mean % DNA Damage: 10J/cm^2 UVA
Experimental: This measurement is based on the comet assay (single cell gel electrophoresis) which detects damage to nuclear DNA that result from nucleotide excision repair (NER) and nucleotide photooxidation. Using the lesion specific enzymes T4N5 that recognizes CPD and hOGG1 that recognizes 8-oxoGua, palythine was tested by comparing pure palythine compound with naturally occurring amphoteric MAA mixtures to that of industry accepted sun-filter controls.
(§1) Powdered sunscreens were dissolved in PBS (Sigma-Aldrich, UK) at a concentration in which they can dissolve fully (0-0.3%). They were then applied (200ul/well) to wells of a 24 well plate containing a washed monolayer of cells. Cells were then irradiated and the sunscreen removed and washed post treatment.
(§2) Irradiation was carried out on cells in monolayers at a distance of 3 cm (Solar Simulator) in cold PBS or PBS + sunscreen. The plate was always placed on a cooling platform at 4°C to avoid overheating of the cells. Unirradiated samples were maintained in PBS for the same time and temperature as irradiated samples.
DNA damage was measured using the comet assay, using lesion specific enzymes to determine the type of damaged produced.
Glass slides are pre-coated with 1% agarose and allowed to dry. Cells were treated with UV +/- sunscreens. Positive controls were treated with ice cold 0.03% Hydrogen Peroxide for 5 minutes, negative controls were kept in the same conditions as the treatments without UV exposure.
After treatment cells were scraped gently with a cell scraper in EDTA solution to help dissociate cells and stop clumping. The cells (40ul) were then added to low melting point (LMP) agarose (160ul) and gently mixed. The final concentration of cells in the LMP agarose was 10,000 cells/100ul of agarose. Then 100ul of the agarose-cell solution was pipetted onto the pre-coated slides and a cover slip was placed onto the gels and left to set for 5-10 minutes then removed. Two replicates were placed on each slide. All steps were carried out on a cooled platform at 4°C. Slides were then places into lysis buffer (2.5M NaCl, 100mM EDTA, 10mM TRIS, 1% sodium sarcosinate, 1% Triton x-100, 10% DMSO) overnight at 4°C in the dark.
Slides were then washed in ice-cold ddH2O (2x5 mins) in the dark and once in ice cold enzyme reaction buffer (0.4mM HEPES, imMKCl, 0.005mM EDTA, 0.02mg/ml BSA) for 5 minutes. After this step different lesions were detected using lesion specific enzymes.
Cylcobutane pyrimidine dimers were measured using the T4 endonuclease V (T4endoV) enzyme. After washing, 50ul of enzyme diluted in reaction buffer (hOGG1- 3.2U/ml, T4EndoV - 0.1U/ml) or reaction buffer alone were added to each gel, a cover slip placed on top and left in a humidity chamber in the dark at 37°C for 45 minutes.
After enzyme treatment coverslips were removed and transferred into ice-cold electrophoresis buffer (10mM NaOH, 200mM EDTA, pH13 in ddH2O) and incubated at 4°C in the dark for 20 minutes. Electrophoresis was then carried out in fresh electrophoresis buffer for 25 minutes at 25V (1V/cm) 300mA, at 4°C in the dark. Slides were then washed in neutralisation buffer (0.4M TRIS, pH7.5) for 2x 10 minutes, and then in ddH2O for 2x 5 minutes and slides were allowed to dry overnight.
The DNA embedded in the slides was stained using Propidium Iodide solution (2.5ug/ml in PBS), 50ul of the solution was added to each gel and cover slip placed over. The slides were then analysed on a Zeiss Axiophot epifluorescence microscope (Carl Zeiss, Germany), with a green excitation filter (536nm) detected with a red emission at 617nm. Pictures covering the whole gel were taken, avoiding the outer edges, using a Nikon camera at a magnification of 10x. The images were then analysed using Comet Score Pro software (Tritek Corp, Summerduck, VA), typically scoring 150 individual comets per condition. […]

HaCaT cells = assay: Reactive oxygen species detection by FACS analysis (carboxy-H2DCFDA), Example 8; assay type: cell-based, human; conditions: for Median corrected Average: FACS Analysis - Reactive Oxygen Species
Experimental: Intracellular ROS generation was measured using the detection agent 5-(and-6)-carboxy-2',7'- dichlorodihydrofluorescein diacetate (carboxy-H2DCFDA). […] More specifically, total intracellular ROS generation was studied using 5-(and-6)-carboxy-2',7'-dichlorodihydrofluorescein diacetate (carboxy-H2DCFDA).
as §1, §2
Detection of reactive oxygen species was performed by FACS analysis using 5-(and 6-)-carboxy-2,',7'-dichlorodihydrofluorescein diacetate (Carboy-H2-DCFDA) (Invitrogen, Paisley, UK). Carboy-H2-DCFDA is a non-fluorescent dye that is activated into a fluorescent dye by ROS cleaving acetate groups from the molecule.
Cells were grown in a 12 well plate washed twice in PBS and irradiated +/- sunscreens. Control cells were unirradiated and positive controls were treated with 0.03% hydrogen peroxide for 5 minutes. Cells were washed again twice in PBS and then 1ML of Carboy-H2-DCFDA diluted in PBS to a concentration of 5uM was added to each well and were incubated for 2 minutes in a cell culture incubator in the dark (95% air, 5% CO2, 37°C, humidified). Each well was then washed twice with PBS to remove any excess dye.
Cells were then trypsinised, centrifuged at 400g for 4 minutes at 4°C and resuspended in 0.5ml of PBS + 0.1%w/v BSA and transferred to FACS tubes. Samples were then analysed with a Becton Dickson CANTO 3. The viable proportion of the cell population was quantified by the addition of 2.5ug/ml of propidium iodide immediately before the analysis.

COC1=C(NCC(=O)O)CC(O)(CO)CC1=N (stereo not shown) [palythine]
improved protection from DNA damage (HaCaT keratinocytes; 0.3% palythine (48% damage) versus Gelyma composition at 4% (76% damage)): 58.33% | DNA damage (HaCaT keratinocytes; 0.3% palythine, from the applicant's data): 48% | percentage change in % DNA in the tail in protected cells compared to unprotected cells (HaCaT keratinocytes; 5J/cm^2 solar simulated UVR, 0.3% palythine, figure 9): significant protection | percentage change in % DNA in the tail in protected cells compared to unprotected cells (HaCaT keratinocytes; 20J/cm^2 UVA, 0.3% palythine, figure 10): significant protection | Mean % DNA Damage (HaCaT keratinocytes; No Enzyme (single strand breaks / alkali labile sites), 0.1% palythine in PBS, mean percentage of tail DNA, n=1): 14.263% | Mean % DNA Damage (HaCaT keratinocytes; No Enzyme (single strand breaks / alkali labile sites), 0.3% palythine in PBS, mean percentage of tail DNA, n=1): 9.914% | Mean % DNA Damage (HaCaT keratinocytes; T4N5 (cyclobutane pyrimidine dimers, CPDs), 0.1% palythine): 26.328% | Mean % DNA Damage (HaCaT keratinocytes; T4N5 (cyclobutane pyrimidine dimers, CPDs), 0.3% palythine): 15.345% | protection for the DNA lesions tested (general damage, CPD and 8oxoGua) (HaCaT keratinocytes; comet assay and IHC-IF, palythine at 0.3% or greater, UVA and SSR induced damage, p=<0.05): significant protection | DNA damage caused by UVA and UVB exposure (HaCaT keratinocytes; lesion specific enzymes T4N5 (CPD) and hOGG1 (8-oxoGua)): significantly reduces DNA damage | Median corrected Average (HaCaT cells; 0.1% palythine): 36.35 | Median corrected Average (HaCaT cells; 0.3% palythine): 33.9 | total intracellular ROS generated after exposure to UVA and UVB (HaCaT cells; carboxy-H2DCFDA): significantly reduce
